Measurements taken from the supplement of paper PMC4932681.

How the values were obtained:
ZR-75-1 [1] = experiment: drug sensitivity score (DSS) (DSS (dimensionless)); higher = more sensitive; extreme values may be limits of the assay; details: 72 h
In short: (§1)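 After seeding into 384-well plates with library drugs at five concentrations spanning a 10 000-fold range, breast cancer cell lines and their resistant derivatives were incubated 72 h at 37 °C. Resistant lines received medium with 1 μM of the selecting drug. CellTiter-Glo signal was read on a PHERAstar and scaled to vehicle-only and positive controls. Drug sensitivity score, relative IC50 (the curve midpoint) and top-dose inhibition came from logistic fits run in the Breeze pipeline.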

BT-474 Tam1 [2] = experiment: as above; details: 4-OH-tamoxifen in medium 1 µM; 72 h
In short: as §1

MCF-7 Tam1 [3] = experiment: as above; details: 4-OH-tamoxifen in medium 1 µM; 72 h
In short: as §1

MCF-7 [4] = experiment: as above; details: 72 h
In short: as §1

ZR-75-1 Tam1 [5] = experiment: as above; details: 4-OH-tamoxifen in medium 1 µM; 72 h
In short: as §1

T-47D Tam1 [6] = experiment: as above; details: 4-OH-tamoxifen in medium 1 µM; 72 h
In short: as §1

ZR-75-1 Tam2 [7] = experiment: as above; details: 4-OH-tamoxifen in medium 1 µM; 72 h
In short: as §1

T-47D [8] = experiment: as above; details: 72 h
In short: as §1

T-47D Tam2 [9] = experiment: as above; details: 4-OH-tamoxifen in medium 1 µM; 72 h
In short: as §1

BT-474 [10] = experiment: as above; details: 72 h
In short: as §1

BT-474 Tam2 [11] = experiment: as above; details: 4-OH-tamoxifen in medium 1 µM; 72 h
In short: as §1

ZR-75-1 [12] = experiment: relative IC50 (midpoint of fitted logistic curve, plateau may be below 50% inhibition; CellTiter-Glo viability); higher = less potent; details: 72 h
In short: as §1

BT-474 Tam1 [13] = experiment: as above; details: 4-OH-tamoxifen in medium 1 µM; 72 h
In short: as §1

MCF-7 Tam1 [14] = experiment: as above; details: 4-OH-tamoxifen in medium 1 µM; 72 h
In short: as §1

MCF-7 [15] = experiment: as above; details: 72 h
In short: as §1

ZR-75-1 Tam1 [16] = experiment: as above; details: 4-OH-tamoxifen in medium 1 µM; 72 h
In short: as §1

T-47D Tam1 [17] = experiment: as above; details: 4-OH-tamoxifen in medium 1 µM; 72 h
In short: as §1

ZR-75-1 Tam2 [18] = experiment: as above; details: 4-OH-tamoxifen in medium 1 µM; 72 h
In short: as §1

T-47D [19] = experiment: as above; details: 72 h
In short: as §1

T-47D Tam2 [20] = experiment: as above; details: 4-OH-tamoxifen in medium 1 µM; 72 h
In short: as §1

BT-474 [21] = experiment: as above; details: 72 h
In short: as §1

BT-474 Tam2 [22] = experiment: as above; details: 4-OH-tamoxifen in medium 1 µM; 72 h
In short: as §1

| SMILES | drug sensitivity score (ZR-75-1 [1]; 4-OH-tamoxifen in medium 0 µM) | drug sensitivity score (ZR-75-1 [1]; 4-OH-tamoxifen in medium 1 µM) | drug sensitivity score (BT-474 Tam1 [2]) | drug sensitivity score (MCF-7 Tam1 [3]) | drug sensitivity score (MCF-7 [4]; 4-OH-tamoxifen in medium 0 µM) | drug sensitivity score (MCF-7 [4]; 4-OH-tamoxifen in medium 1 µM) | drug sensitivity score (ZR-75-1 Tam1 [5]) | drug sensitivity score (T-47D Tam1 [6]) | drug sensitivity score (ZR-75-1 Tam2 [7]) | drug sensitivity score (T-47D [8]; 4-OH-tamoxifen in medium 0 µM) | drug sensitivity score (T-47D [8]; 4-OH-tamoxifen in medium 1 µM) | drug sensitivity score (T-47D Tam2 [9]) | drug sensitivity score (BT-474 [10]; 4-OH-tamoxifen in medium 0 µM) | drug sensitivity score (BT-474 [10]; 4-OH-tamoxifen in medium 1 µM) | drug sensitivity score (BT-474 Tam2 [11]) | relative IC50 (ZR-75-1 [12]; 4-OH-tamoxifen in medium 0 µM) | relative IC50 (ZR-75-1 [12]; 4-OH-tamoxifen in medium 1 µM) | relative IC50 (BT-474 Tam1 [13]) | relative IC50 (MCF-7 Tam1 [14]) | relative IC50 (MCF-7 [15]; 4-OH-tamoxifen in medium 0 µM) | relative IC50 (ZR-75-1 Tam1 [16]) | relative IC50 (T-47D Tam1 [17]) | relative IC50 (ZR-75-1 Tam2 [18]) | relative IC50 (T-47D [19]; 4-OH-tamoxifen in medium 0 µM) | relative IC50 (T-47D [19]; 4-OH-tamoxifen in medium 1 µM) | relative IC50 (T-47D Tam2 [20]) | relative IC50 (BT-474 [21]; 4-OH-tamoxifen in medium 0 µM) | relative IC50 (BT-474 [21]; 4-OH-tamoxifen in medium 1 µM) | relative IC50 (MCF-7 [15]; 4-OH-tamoxifen in medium 1 µM) | relative IC50 (BT-474 Tam2 [22]) |
| --- | --- | --- | --- | --- | --- | --- | --- | --- | --- | --- | --- | --- | --- | --- | --- | --- | --- | --- | --- | --- | --- | --- | --- | --- | --- | --- | --- | --- | --- | --- |
| CN1CCC(COc2cnc(-c3cccc(Cn4nc(-c5cccc(C#N)c5)ccc4=O)c3)nc2)CC1 | 0 | 0 | 0 | 0 | 0 | 0.0353 | 0 | 3.13 | 0 | 0 | 0 | 0 | 0 | 0 | 1.22 | > 1 µM | > 1 µM | > 1 µM | > 1 µM | > 1 µM | > 1 µM | 0.314 µM | > 1 µM | > 1 µM | > 1 µM | > 1 µM | > 1 µM | > 1 µM | – | – |
| Oc1ccc2c(c1)CC[C@H](c1ccccc1)[C@@H]2c1ccc(OCCN2CCCC2)cc1 [Lasofoxifene] | 0 | 0 | 1.01 | 0 | 1.49 | 0.854 | 0 | 0 | 0 | 0 | 0 | 0 | 0 | 0.881 | 0.434 | > 1 µM | > 1 µM | 0.449 µM | > 1 µM | – | > 1 µM | > 1 µM | > 1 µM | > 1 µM | > 1 µM | > 1 µM | > 1 µM | – | – | – |
| COc1ccc(S(=O)(=O)Nc2cccnc2Nc2ccc(O)cc2)cc1 [ABT-751] | 5.44 | 0.184 | 6.57 | 0 | 6.87 | 4.14 | 0 | 6.4 | 1.41 | 0 | 0 | 4.48 | 6.81 | 9.13 | 6.39 | 0.412 µM | – | 1.35 µM | > 10 µM | 0.615 µM | > 10 µM | 1.17 µM | – | > 10 µM | > 10 µM | 0.92 µM | 0.347 µM | 0.891 µM | 1.49 µM | 0.992 µM |
| COCC1(CO)C(=O)C2CCN1CC2 (stereo not given) [Prima-1 Met] | 0 | 0 | 0 | 0 | 0.0674 | 0 | 0 | 0 | 0.24 | 0 | 0 | 0 | 0 | 0 | 0 | > 10 µM | > 10 µM | > 10 µM | > 10 µM | – | > 10 µM | > 10 µM | – | > 10 µM | > 10 µM | > 10 µM | > 10 µM | > 10 µM | > 10 µM | > 10 µM |
